Experimental data published in article PMC11187625, “New Labeled PET Analogues Enable the Functional Screening and Characterization of PET-Degrading Enzymes” (ACS Sustainable Chemistry & Engineering, 2024).

These compounds were tested on T1, A. niger lipase (assay: fluorescence, 4-mU release). Settings: 0.1 M phosphate pH 7, 30 °C, 5% DMSO.
T1 construct: commercial preparation, Fluka Analytical
Type: biochemical, Aspergillus niger
Description: fluorescence, 4-mU release on A. niger lipase

SMILES | Km [µM]
COC(=O)c1ccc(C(=O)Oc2ccc3c(C)cc(=O)oc3c2)cc1 [A, Methyl (4-Methyl-2-oxo-2H-chromen-7-yl) Terephthalate] | 5.7 ± 0.5
CCOCCOC(=O)c1ccc(C(=O)Oc2ccc3c(C)cc(=O)oc3c2)cc1 [B, 2-Ethoxyethyl (4-Methyl-2-oxo-2H-chromen-7-yl) Terephthalate] | 1 ± 0.1
COC(=O)c1ccc(C(=O)OCCOC(=O)c2ccc(C(=O)Oc3ccc4c(C)cc(=O)oc4c3)cc2)cc1 [C, 2-((4-(Methoxycarbonyl)benzoyl)oxy)ethyl (4-Methyl-2-oxo-2H-chromen-7-yl) Terephthalate] | 0.6 ± 0.1
